{"source": "paper PMC5762315", "about": "“Inhibition of polo-like kinase 4 (PLK4): a new therapeutic option for rhabdoid tumors and pediatric medulloblastoma” (Oncotarget, 2017)", "assay_in_all_cases": "biochemical", "format_in_all_cases": "biochemical", "key": {"various kinases [1]": {"target": "various kinases (Homo sapiens, UniProt P00519, T315I)", "conditions": "ABL1 T315I"}, "various kinases [2]": {"target": "various kinases (Homo sapiens, UniProt O60674, V617F)", "conditions": "JAK2 JH1 JH2 V617F"}, "various kinases [3]": {"target": "various kinases (Homo sapiens, UniProt P23443)", "sequence (P23443 whole entry)": "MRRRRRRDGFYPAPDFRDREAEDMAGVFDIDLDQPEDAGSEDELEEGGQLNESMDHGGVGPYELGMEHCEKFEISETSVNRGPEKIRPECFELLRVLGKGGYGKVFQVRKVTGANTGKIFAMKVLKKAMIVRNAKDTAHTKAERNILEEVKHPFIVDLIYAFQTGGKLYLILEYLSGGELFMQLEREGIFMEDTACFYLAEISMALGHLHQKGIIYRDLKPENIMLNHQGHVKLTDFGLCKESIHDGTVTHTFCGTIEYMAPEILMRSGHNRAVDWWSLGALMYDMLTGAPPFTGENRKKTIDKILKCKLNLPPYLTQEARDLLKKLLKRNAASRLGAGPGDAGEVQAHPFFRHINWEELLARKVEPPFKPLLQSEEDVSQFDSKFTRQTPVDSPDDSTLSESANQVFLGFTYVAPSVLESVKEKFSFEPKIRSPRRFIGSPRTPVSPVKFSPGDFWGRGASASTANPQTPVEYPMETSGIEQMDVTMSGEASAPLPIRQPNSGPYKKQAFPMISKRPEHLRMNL", "conditions": "kinase RPS6KB1 (p70S6K); ZLYTE"}, "various kinases [4]": {"target": "various kinases (Homo sapiens, UniProt P48730)", "sequence (P48730 whole entry)": "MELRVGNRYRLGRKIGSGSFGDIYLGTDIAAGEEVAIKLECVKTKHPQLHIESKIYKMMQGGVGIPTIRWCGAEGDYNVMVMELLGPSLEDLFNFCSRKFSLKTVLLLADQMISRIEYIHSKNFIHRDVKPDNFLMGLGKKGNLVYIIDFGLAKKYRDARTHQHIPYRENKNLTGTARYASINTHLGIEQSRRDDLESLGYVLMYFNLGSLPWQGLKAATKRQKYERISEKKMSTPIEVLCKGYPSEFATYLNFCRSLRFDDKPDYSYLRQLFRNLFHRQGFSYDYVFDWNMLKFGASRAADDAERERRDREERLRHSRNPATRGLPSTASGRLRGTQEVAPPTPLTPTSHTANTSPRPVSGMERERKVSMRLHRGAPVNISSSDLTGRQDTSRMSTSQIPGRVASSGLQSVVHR", "conditions": "CSNK1D (CK1 delta)"}, "various kinases [5]": {"target": "various kinases (Homo sapiens, UniProt Q13153)", "sequence (Q13153 whole entry)": "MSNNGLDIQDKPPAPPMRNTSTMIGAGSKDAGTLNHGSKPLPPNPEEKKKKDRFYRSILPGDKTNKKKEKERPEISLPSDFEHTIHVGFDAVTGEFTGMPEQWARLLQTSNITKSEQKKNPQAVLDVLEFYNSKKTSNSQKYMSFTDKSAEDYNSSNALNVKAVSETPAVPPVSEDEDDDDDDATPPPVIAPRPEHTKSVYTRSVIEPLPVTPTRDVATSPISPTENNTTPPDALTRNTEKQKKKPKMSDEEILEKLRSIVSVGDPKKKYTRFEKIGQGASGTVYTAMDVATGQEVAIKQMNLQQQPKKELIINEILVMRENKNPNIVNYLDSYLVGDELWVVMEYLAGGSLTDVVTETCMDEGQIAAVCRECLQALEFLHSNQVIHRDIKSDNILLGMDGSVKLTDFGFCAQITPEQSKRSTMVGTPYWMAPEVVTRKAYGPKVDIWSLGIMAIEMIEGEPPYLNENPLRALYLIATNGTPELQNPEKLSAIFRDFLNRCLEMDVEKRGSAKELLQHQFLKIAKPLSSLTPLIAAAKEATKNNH", "conditions": "PAK1"}, "various kinases [6]": {"target": "various kinases (Homo sapiens, UniProt P51812)", "sequence (P51812 whole entry)": "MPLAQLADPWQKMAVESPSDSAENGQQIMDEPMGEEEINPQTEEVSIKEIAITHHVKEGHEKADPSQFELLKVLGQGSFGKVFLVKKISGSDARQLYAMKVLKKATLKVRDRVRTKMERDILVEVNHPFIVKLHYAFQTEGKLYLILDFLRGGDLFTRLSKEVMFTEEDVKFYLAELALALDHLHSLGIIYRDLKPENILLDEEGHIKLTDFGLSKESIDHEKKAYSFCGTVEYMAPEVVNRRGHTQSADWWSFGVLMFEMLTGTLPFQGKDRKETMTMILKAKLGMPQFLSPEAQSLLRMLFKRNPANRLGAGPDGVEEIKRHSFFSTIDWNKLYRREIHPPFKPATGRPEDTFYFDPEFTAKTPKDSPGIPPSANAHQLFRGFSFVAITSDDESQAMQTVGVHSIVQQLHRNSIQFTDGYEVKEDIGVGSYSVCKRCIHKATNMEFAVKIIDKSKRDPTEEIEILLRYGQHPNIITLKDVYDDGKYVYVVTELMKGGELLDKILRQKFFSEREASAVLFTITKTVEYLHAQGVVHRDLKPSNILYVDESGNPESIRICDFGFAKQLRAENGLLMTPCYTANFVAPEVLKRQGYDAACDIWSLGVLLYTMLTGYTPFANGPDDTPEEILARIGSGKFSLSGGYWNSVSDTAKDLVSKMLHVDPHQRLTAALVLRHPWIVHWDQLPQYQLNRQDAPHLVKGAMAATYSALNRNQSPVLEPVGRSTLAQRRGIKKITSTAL", "conditions": "kinase RPS6KA3 (RSK2); ZLYTE"}, "various kinases [7]": {"target": "various kinases (Homo sapiens, UniProt P00533, L858R)", "conditions": "EGFR (ErbB1) L858R"}, "various kinases [8]": {"target": "various kinases (Homo sapiens, UniProt P00533)", "sequence (P00533 25-1210)": "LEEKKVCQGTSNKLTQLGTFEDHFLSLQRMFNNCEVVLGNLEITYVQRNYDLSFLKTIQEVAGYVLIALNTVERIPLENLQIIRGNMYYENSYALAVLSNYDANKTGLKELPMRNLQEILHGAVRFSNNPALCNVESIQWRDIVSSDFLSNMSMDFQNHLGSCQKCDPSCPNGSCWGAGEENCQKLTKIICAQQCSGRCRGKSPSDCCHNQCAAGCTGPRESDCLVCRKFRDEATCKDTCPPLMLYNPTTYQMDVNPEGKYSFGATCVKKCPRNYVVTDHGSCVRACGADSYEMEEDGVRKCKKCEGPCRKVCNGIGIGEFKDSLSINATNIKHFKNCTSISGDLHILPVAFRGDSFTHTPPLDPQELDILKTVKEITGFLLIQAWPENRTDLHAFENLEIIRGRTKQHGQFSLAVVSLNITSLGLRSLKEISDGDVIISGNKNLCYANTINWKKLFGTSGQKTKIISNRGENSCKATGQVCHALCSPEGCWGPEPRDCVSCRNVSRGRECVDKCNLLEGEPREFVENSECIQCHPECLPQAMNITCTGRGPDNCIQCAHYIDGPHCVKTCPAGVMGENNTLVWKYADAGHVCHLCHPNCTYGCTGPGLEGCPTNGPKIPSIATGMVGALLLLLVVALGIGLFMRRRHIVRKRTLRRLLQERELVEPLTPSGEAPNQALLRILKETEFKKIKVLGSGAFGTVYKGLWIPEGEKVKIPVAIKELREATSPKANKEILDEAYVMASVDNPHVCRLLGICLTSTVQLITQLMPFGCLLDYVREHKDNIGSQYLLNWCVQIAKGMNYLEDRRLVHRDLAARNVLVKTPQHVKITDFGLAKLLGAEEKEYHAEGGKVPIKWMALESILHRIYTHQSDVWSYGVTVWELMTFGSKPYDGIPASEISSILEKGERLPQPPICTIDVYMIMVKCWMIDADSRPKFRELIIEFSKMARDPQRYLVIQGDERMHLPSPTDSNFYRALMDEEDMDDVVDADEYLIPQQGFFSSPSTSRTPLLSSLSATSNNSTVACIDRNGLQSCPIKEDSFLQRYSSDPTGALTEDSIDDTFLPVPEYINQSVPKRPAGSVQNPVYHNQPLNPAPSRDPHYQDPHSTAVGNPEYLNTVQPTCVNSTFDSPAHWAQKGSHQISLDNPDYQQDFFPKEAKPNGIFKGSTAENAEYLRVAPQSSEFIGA", "conditions": "EGFR (ErbB1)"}, "various kinases [9]": {"target": "various kinases (Homo sapiens, UniProt Q9H3Y6)", "sequence (Q9H3Y6 whole entry)": "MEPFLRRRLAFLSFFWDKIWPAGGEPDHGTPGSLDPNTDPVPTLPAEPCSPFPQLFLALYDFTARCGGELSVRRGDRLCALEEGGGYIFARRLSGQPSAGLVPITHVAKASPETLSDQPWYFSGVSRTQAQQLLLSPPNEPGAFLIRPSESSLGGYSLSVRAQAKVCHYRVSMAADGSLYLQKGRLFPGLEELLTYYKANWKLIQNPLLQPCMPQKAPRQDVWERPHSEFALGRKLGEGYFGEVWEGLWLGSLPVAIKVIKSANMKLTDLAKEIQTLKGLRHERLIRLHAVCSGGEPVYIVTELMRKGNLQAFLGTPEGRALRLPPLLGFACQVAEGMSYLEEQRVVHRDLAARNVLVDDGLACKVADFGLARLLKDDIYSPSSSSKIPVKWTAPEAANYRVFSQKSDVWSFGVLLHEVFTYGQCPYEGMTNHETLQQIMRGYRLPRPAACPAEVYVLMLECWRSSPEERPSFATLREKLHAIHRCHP", "conditions": "kinase SRMS (Srm); ZLYTE"}, "various kinases [10]": {"target": "various kinases (Homo sapiens, UniProt Q13177)", "conditions": "PAK2 (PAK65)"}, "various kinases [11]": {"target": "various kinases (Homo sapiens, UniProt P29322)", "conditions": "EPHA8"}, "various kinases [12]": {"target": "T1, various kinases (Homo sapiens, UniProt Q9BZL6)", "T1 sequence (Q9BZL6 1-878)": "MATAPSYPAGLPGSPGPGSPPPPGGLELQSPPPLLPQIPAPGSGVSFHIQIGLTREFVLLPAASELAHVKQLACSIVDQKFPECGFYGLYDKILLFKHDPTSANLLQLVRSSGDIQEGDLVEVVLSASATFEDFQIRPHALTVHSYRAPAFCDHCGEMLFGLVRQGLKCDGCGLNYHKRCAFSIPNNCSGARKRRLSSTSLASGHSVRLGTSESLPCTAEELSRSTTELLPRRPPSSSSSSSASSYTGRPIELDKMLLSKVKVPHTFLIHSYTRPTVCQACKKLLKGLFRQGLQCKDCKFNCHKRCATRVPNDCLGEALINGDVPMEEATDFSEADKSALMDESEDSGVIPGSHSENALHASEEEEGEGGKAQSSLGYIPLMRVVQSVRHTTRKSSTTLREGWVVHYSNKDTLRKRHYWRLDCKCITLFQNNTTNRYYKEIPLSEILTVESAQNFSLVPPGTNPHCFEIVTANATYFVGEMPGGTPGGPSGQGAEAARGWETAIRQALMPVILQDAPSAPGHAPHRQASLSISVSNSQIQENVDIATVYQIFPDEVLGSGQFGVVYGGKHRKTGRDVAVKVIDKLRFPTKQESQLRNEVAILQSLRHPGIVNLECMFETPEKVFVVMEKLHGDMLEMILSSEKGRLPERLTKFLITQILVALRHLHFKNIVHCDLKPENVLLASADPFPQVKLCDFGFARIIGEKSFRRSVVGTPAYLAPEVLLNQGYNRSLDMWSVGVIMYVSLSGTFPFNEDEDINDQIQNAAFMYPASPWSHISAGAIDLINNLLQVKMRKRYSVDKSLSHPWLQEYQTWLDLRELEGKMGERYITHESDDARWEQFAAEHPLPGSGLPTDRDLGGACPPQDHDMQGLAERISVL", "conditions": "kinase PRKD2 (PKD2); ZLYTE"}, "various kinases [13]": {"target": "various kinases (Homo sapiens, UniProt P52564)", "sequence (P52564 whole entry)": "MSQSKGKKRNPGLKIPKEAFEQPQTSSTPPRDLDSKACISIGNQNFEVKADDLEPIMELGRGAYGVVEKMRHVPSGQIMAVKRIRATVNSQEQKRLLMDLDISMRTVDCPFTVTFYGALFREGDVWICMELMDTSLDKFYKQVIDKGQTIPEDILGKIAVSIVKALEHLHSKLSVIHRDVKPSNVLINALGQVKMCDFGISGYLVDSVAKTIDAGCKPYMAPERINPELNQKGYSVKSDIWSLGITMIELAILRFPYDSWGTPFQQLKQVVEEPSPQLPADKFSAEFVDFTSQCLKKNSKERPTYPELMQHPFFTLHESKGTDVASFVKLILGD", "conditions": "MAP2K6 (MKK6)"}, "various kinases [14]": {"target": "various kinases (Homo sapiens, UniProt O60674)"}, "various kinases [15]": {"target": "various kinases (Homo sapiens, UniProt Q9H792)", "conditions": "PEAK1"}, "various kinases [16]": {"target": "T2, various kinases (Homo sapiens, UniProt Q13043)", "T2 sequence (Q13043 1-487)": "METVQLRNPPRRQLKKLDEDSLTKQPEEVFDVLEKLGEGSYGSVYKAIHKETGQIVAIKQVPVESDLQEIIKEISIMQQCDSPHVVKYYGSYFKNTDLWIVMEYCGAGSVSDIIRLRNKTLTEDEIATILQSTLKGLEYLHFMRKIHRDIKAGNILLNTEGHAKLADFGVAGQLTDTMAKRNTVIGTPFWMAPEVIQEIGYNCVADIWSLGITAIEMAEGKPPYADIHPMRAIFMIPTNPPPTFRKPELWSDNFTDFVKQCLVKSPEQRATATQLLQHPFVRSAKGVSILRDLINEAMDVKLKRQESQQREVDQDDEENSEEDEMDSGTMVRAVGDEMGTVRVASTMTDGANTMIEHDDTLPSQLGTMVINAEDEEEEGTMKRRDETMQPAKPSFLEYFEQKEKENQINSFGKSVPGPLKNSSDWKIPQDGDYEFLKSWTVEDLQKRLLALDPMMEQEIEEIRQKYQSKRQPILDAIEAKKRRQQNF", "conditions": "kinase STK4 (MST1); ZLYTE"}, "various kinases [17]": {"target": "various kinases (Homo sapiens, UniProt P51813)", "sequence (P51813 whole entry)": "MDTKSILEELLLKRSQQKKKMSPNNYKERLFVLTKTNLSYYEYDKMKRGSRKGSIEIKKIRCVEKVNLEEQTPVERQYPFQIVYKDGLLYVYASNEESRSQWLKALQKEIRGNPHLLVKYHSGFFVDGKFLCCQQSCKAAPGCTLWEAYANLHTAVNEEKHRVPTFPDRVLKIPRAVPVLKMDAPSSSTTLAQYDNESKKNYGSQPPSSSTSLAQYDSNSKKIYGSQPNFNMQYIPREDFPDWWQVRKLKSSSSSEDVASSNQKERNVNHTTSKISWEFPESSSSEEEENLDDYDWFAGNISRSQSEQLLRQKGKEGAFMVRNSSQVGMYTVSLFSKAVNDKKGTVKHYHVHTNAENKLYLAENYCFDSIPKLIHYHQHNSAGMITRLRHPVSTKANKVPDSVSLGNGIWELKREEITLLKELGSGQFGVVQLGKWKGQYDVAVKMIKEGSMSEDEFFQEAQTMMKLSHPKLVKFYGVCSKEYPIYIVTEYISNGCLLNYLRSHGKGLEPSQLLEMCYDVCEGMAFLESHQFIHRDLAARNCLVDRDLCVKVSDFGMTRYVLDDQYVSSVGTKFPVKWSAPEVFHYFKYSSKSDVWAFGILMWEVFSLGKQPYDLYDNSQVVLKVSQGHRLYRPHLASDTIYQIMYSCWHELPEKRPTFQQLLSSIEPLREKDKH", "conditions": "BMX"}}, "note": "“And” between values parts separate entries of the source, which are not always exact repeats. Equal values may be shown once. Wherever % Inhibition Average is given: test concentration or dose not given here. Wherever % Inhibition Duplicate #1 is given: test concentration or dose not given here. Wherever % Inhibition Duplicate #2 is given: test concentration or dose not given here.", "data": [{"smiles": "COc1ccc2c(c1)[C@]1(C[C@H]1c1ccc3c(/C=C/c4ccc(CN5C[C@@H](C)O[C@@H](C)C5)cc4)n[nH]c3c1)C(=O)N2", "note": "[CFI-400945]", "values": [{"measurement": "% Inhibition", "setting": "various kinases [1]", "result": "83% and 78%"}, {"measurement": "IC50", "setting": "various kinases [1]", "result": 27.2, "unit": "nM"}, {"measurement": "% Inhibition", "setting": "various kinases [2]", "result": "8% and 9%"}, {"measurement": "% Inhibition Average", "setting": "various kinases [3]", "result": 7, "unit": "%"}, {"measurement": "% Inhibition Duplicate #1", "setting": "various kinases [3]", "result": 6, "unit": "%"}, {"measurement": "% Inhibition Duplicate #2", "setting": "various kinases [3]", "result": 8, "unit": "%"}, {"measurement": "% Inhibition", "setting": "various kinases [4]", "result": "-2% and 3%"}, {"measurement": "% Inhibition", "setting": "various kinases [5]", "result": "11% and 6%"}, {"measurement": "% Inhibition Average", "setting": "various kinases [6]", "result": 2, "unit": "%"}, {"measurement": "% Inhibition Duplicate #1", "setting": "various kinases [6]", "result": 1, "unit": "%"}, {"measurement": "% Inhibition Duplicate #2", "setting": "various kinases [6]", "result": 2, "unit": "%"}, {"measurement": "% Inhibition", "setting": "various kinases [7]", "result": "1% and 2%"}, {"measurement": "% Inhibition", "setting": "various kinases [8]", "result": "1% and 7%"}, {"measurement": "% Inhibition Average", "setting": "various kinases [9]", "result": 11, "unit": "%"}, {"measurement": "% Inhibition Duplicate #1", "setting": "various kinases [9]", "result": 10, "unit": "%"}, {"measurement": "% Inhibition Duplicate #2", "setting": "various kinases [9]", "result": 12, "unit": "%"}, {"measurement": "% Inhibition", "setting": "various kinases [10]", "result": "17% and 8%"}, {"measurement": "% Inhibition", "setting": "various kinases [11]", "result": "-5% and 0%"}, {"measurement": "% Inhibition Average", "setting": "various kinases [12]", "result": 2, "unit": "%"}, {"measurement": "% Inhibition Duplicate #1", "setting": "various kinases [12]", "result": 0, "unit": "%"}, {"measurement": "% Inhibition Duplicate #2", "setting": "various kinases [12]", "result": 4, "unit": "%"}, {"measurement": "% Inhibition", "setting": "various kinases [13]", "result": "4% and -2%"}, {"measurement": "% Inhibition", "setting": "various kinases [14]; JAK2", "result": 9, "unit": "%"}, {"measurement": "% Inhibition", "setting": "various kinases [14]; JAK2 JH1 JH2", "result": 7, "unit": "%"}, {"measurement": "% Inhibition", "setting": "various kinases [15]", "result": "5% and 11%"}, {"measurement": "% Inhibition Average", "setting": "various kinases [16]", "result": 23, "unit": "%"}, {"measurement": "% Inhibition Duplicate #1", "setting": "various kinases [16]", "result": 22, "unit": "%"}, {"measurement": "% Inhibition Duplicate #2", "setting": "various kinases [16]", "result": 24, "unit": "%"}, {"measurement": "% Inhibition", "setting": "various kinases [17]", "result": "52% and 54%"}]}]}
